From paper PMC10245146, “CNS4 causes subtype‐specific changes in agonist efficacy and reversal potential of permeant cations in NMDA receptors” (Pharmacology Research & Perspectives, 2023)
Values joined by “and” are separate entries in the source; they are usually repeats but may differ in a detail not shown here. Identical values can stand only once.

What was measured:
Assay type in all cases: cell-based
[1] = target: T1, GluN1/2C NMDA receptors (UniProt P35439+Q14957); assay: TEVC agonist dose-response, Xenopus oocytes expressing 1/2C
T1 construct: host or cells: Xenopus oocytes (cRNA injection)
Excerpt: (§1) NMDA receptor constructs: cDNA encoding the NMDA receptor1a subunit (GluN1a) was obtained from Dr. Nakanishi (Kyoto, Japan). cDNA encoding the GluN2B (pci_sepGluN2B), originally developed in the Malinow lab,[33] was purchased from Addgene (cat# 23998), Cambridge, MA. cDNA encoding the GluN2C and GluN2D were purchased from GenScript, New Jersey, USA. Mutated GluN1, 2A and 2B cDNA constructs capable of assembling as GluN1/2A/2B triheteromeric (1/2AB) receptors[34] were obtained from Dr. Paoletti (Laboratoire de Neurobiologie, CNRS). These constructs have been previously tested for 1/2AB receptor activity of GluN1/2A receptor‐selective potentiators.[35] […] Plasmids were linearized with NotI (GluN1a and all five GluN1 mutants) or Avrll (GluN2B), or BstB1 (GluN2C and GluN2D) and transcribed in vitro with T7 (GluN1a, GluN1/2A, GluN2B, GluN2C & GluN2D), and SP6 (GluN1 mutants) RNA polymerase using the mMessage mMachine transcription kits (Invitrogen by Thermo Fisher Scientific).
(§2) Stage IV frog oocytes were obtained from Xenopus‐I, (Ann Arbor, MI, USA). NMDA receptor subunit cRNAs were suspended in nuclease free sterile water. GluN1A, GluN2B, GluN2C, GluN2D and GluN1/2A/2B cRNAs were mixed in a ratio of 1:1–3. 50 nL of the final cRNA mixture was microinjected (40–70 ng total) into the oocyte cytoplasm. Oocytes were incubated in ND‐96 solution at 18°C prior to electrophysiological recordings (2–5 days).
(§3) Electrophysiological responses were measured using a standard two‐microelectrode voltage‐clamp workstation (Warner Instruments model OC‐725C) designed to provide a fast clamp of large cells. The recording buffer contained 116 mM NaCl, 2 mM KCl, 0.3 mM BaCl2, and 5 mM HEPES, pH 7.4. Response magnitude was determined in Xenopus oocytes expressing different NMDA receptor subunits (GluN1/2A, 1/2B, 1/2C, 1/2D, and 1/2A/2B) by the steady plateau response elicited by bath application of different agonist concentrations. […] All data points were obtained from the steady state currents unless stated otherwise. Dose–response relationships were fit to an appropriate curve‐fitting equation using GraphPad Prism‐7. Non‐linear regression was used to calculate EC50, IC50, and fold change or percentage maximal response. Curves were fit using the following equations as performed in the previous studies, [37]: Y=100/1+10^LogEC50−XorY=Bottom+Top−Bottom/1+10^LogEC50−X . Statistical significance was determined at the overall alpha level 0.05, using appropriate statistical methods as described in all figure captions. Technical and biological replicates are explicitly mentioned in each figure legend, as n = X (Y). X represents technical repeats (number of traces) and Y represents biological repeats (number of oocytes or HEK293T cells studied). […]

[2] = target: T2, GluN1/2D NMDA receptors (UniProt O15399+P35439); assay: TEVC agonist dose-response, Xenopus oocytes expressing 1/2D
T2 construct: host or cells: Xenopus oocytes (cRNA injection)
Excerpt: as §1, §2, §3

[3] = target: T2, GluN1/2D NMDA receptors; assay: Current-voltage (I-V) relationship, Xenopus oocytes expressing 1/2D; conditions: for Difference in reversal potential (∆Erev) between W and WO CNS4: 100 μM CNS4; for Reversal potential (Erev): with 100 μM CNS4
Protocol: There are two sets of recording solutions used for the I‐V assay: solutions with normal (1) and low (2) Ca^2+ concentrations. The normal Ca^2+ solutions contained (mM): 115 NaCl, 1 KCl, 1.8 CaCl2, 10 HEPES. PH was adjusted to 7.2. Low calcium solutions contained 0.018 mM CaCl2 and other components were the same as normal Ca^2+ solution. To study the effects of CNS4 in the absence of extracellular Na^+, NaCl was replaced with impermeable agent, N‐methyl‐D‐glucamine (NMDG, […]). HCl was used to dissolve the NMDG and to adjust the PH to 7.2. NMDG‐containing solutions are termed Nafree. […] There were four different agonist solutions used for each set of Ca^2+ recordings: (1) Agonist, (2) Agonist+CNS4, (3) Agonist in Nafree solution, (4) Agonist+CNS4 in Nafree solution. Each solution was applied to the oocytes in sequential order and the same order was followed for all I‐V recordings. Low Ca^2+ experiments were carried out in the same way as normal Ca^2+ experiments, except that they had 0.018 mM Ca^2+ in all four agonist and recording solutions. Steady state current responses evoked by these solutions at each voltage step were measured. Reversal potentials (Erev) were obtained from x‐intercept values when y = 0 after fitting the I‐V data using a third order polynomial, non‐linear curve fitting equation Y=B0+B1^*X+B2^*X^2+B3^*X^3 . Erev obtained from each oocyte with different agonists were compared in a pairwise manner. These differences were then averaged. Paired or unpaired student t‐test was performed to compare the data as mentioned in each figure legend.
FIGURE 6 Effect on CNS4 on agonist induced current directions in 1/2D receptors. Current –Voltage (I‐V) relationship of 1/2D receptors was studied with normal (A) and low (B) CaCl2 containing extracellular solutions. […] Dark and light green circles indicate normal and low CaCl2 experiments, respectively. (C) Comparison of reversal potentials values. Dark and light red squares indicate equivalent I‐V experiments with NMDG (Nafree). Dotted and thick lines denote the absence (empty circles or squares) and presence (filled circles or squares) of 100 μM CNS4, respectively. Traces (Ai&ii, Bi&ii) represent the current response at −90 mv. N = 4 (4) & n = 7(7) for normal & low Ca^2+ assays respectively. Erev obtained from each oocyte with different agonists were compared in a pairwise manner. Paired student t‐test was performed to compare the data presented at Ci. Unpaired student's t‐test was performed to compare the difference in reversal potentials (triangles). *p < .05.

T2 sequence (O15399 28-1336, other chains not shown): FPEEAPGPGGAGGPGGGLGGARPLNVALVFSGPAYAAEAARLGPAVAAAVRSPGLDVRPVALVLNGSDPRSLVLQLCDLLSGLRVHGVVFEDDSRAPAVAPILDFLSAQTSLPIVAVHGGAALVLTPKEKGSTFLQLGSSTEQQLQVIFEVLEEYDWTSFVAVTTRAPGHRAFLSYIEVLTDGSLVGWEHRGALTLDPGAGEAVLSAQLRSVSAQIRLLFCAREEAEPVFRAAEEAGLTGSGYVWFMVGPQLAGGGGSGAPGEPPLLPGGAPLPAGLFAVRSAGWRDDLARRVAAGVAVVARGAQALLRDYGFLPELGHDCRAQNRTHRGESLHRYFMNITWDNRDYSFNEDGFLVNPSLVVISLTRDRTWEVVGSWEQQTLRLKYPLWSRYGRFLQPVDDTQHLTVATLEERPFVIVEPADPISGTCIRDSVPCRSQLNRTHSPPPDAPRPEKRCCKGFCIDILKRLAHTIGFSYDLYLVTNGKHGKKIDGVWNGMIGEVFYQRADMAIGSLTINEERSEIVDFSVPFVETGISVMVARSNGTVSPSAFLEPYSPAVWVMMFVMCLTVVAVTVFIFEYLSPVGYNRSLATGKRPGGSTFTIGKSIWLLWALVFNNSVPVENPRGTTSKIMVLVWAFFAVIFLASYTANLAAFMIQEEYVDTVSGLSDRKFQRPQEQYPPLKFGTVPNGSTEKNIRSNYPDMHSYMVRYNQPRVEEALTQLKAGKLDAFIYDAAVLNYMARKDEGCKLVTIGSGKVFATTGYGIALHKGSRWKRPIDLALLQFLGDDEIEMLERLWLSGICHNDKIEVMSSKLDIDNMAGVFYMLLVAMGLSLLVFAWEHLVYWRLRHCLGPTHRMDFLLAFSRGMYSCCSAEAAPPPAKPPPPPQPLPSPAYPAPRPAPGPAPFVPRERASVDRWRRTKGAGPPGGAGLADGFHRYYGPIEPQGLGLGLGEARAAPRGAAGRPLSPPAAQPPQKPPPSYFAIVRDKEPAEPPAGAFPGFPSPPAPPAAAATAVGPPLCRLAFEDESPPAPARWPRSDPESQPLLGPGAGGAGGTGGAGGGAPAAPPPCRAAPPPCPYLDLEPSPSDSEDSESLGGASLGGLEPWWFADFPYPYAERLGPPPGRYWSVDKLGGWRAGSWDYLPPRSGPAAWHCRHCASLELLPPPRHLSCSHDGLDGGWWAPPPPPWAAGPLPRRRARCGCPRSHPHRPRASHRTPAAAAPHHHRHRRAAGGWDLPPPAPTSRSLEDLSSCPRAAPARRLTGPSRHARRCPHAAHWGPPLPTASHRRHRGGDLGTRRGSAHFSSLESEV
T1 sequence (Q14957 20-1233, other chains not shown): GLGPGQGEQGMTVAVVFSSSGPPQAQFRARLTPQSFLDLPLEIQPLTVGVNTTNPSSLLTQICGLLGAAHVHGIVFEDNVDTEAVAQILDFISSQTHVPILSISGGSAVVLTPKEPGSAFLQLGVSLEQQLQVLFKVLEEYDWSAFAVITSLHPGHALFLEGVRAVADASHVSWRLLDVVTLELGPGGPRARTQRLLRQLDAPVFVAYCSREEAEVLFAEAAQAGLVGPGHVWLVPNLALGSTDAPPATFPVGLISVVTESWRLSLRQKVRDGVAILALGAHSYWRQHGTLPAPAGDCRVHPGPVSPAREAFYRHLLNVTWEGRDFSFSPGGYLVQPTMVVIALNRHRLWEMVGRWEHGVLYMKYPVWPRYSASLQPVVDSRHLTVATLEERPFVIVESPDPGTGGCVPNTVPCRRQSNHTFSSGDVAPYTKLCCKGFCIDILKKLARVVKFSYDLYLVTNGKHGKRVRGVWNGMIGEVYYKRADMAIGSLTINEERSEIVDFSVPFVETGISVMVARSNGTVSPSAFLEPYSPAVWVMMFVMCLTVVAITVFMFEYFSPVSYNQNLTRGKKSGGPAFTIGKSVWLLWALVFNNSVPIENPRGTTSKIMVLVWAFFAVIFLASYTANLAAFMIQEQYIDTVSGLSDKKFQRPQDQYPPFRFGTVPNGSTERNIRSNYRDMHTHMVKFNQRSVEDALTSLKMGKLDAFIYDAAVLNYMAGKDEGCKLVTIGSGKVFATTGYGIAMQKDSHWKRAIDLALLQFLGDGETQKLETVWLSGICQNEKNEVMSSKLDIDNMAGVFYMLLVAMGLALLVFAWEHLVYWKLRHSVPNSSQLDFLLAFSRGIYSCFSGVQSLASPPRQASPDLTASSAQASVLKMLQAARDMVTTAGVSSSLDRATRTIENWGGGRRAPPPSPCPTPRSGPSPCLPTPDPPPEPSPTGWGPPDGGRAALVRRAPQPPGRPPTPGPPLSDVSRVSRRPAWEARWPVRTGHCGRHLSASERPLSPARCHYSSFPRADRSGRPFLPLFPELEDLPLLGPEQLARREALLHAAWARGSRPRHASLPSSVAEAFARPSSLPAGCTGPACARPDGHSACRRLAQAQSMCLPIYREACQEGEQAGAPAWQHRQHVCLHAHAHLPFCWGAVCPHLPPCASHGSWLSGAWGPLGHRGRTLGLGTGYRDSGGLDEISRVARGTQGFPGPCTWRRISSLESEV

## O=C(NC(=S)N1CCCCC1c1cccnc1)c1ccc(F)cc1 (stereo not drawn) [CNS4]
[1]; 30 μM CNS4
  Increase in glycine efficacy with vs without CNS4: 1.8 fold
  Reduction in glutamate efficacy with vs without CNS4: 2.1 fold
[1]; with 30 μM CNS4, 100 μM glutamate constant, relative to 100 nM glycine, p = .0015
  Glycine efficacy: relative fold change in current at highest glycine concentration: 1.77 ± 0.20 fold
[1]; with 30 μM CNS4, 100 μM glycine constant, relative to 100 nM glutamate, p = .0001
  Glutamate efficacy: relative fold change in current at highest glutamate concentration: 3.93 ± 0.43 fold
[2]; 30 μM CNS4
  Effect on glutamate efficacy with vs without CNS4 (insignificant): 0.8 fold
[2]; 30 μM CNS4, 10 μM glycine
  Increase in glycine efficacy with vs without CNS4: 1.89 fold and 1.9 fold
[2]; with 30 μM CNS4, 10 μM glycine, 100 μM glutamate constant, relative to 100 nM glycine, p = .0014
  Glycine efficacy: relative fold change in current at highest glycine concentration: 2.04 ± 0.19 fold
[2]; with 30 μM CNS4, 100 μM glycine constant, relative to 100 nM glutamate, p = .1735
  Glutamate efficacy: relative fold change in current at highest glutamate concentration: 6.90 ± 0.62 fold
[3]; low Ca2+, Nafree, n = 6
  Difference in reversal potential (∆Erev) between W and WO CNS4: −6.22 ± 4.08 mV
[3]; low Ca2+, with Na+, n = 7
  Difference in reversal potential (∆Erev) between W and WO CNS4: −26.55 ± 7.66 mV
[3]; normal Ca2+, Nafree, n = 4
  Difference in reversal potential (∆Erev) between W and WO CNS4: −2.21 ± 2.14 mV
[3]; normal Ca2+, with Na+, n = 4
  Difference in reversal potential (∆Erev) between W and WO CNS4: −0.22 ± 2.08 mV
[3]; low Ca2+, with Na+, without CNS4 ‐44.02 ± 6.04, p = .013
  Reversal potential (Erev): −70.57 ± 6.44 mV
[3]; normal Ca2+, Nafree, without CNS4 −77.99 ± 1.77, p = .378
  Reversal potential (Erev): −80.20 ± 2.54 mV
[3]; normal Ca2+, with Na+, without CNS4 −61.43 ± 5.26, p = .919
  Reversal potential (Erev): −61.66 ± 5.55 mV
